This note sets out measurements from patent publication US20080051387A1, “TETRAHYDROPYRIDO[3,4-D]PYRIMIDINES AND RELATED ANALOGUES” (priority 2006, published 2008).

The test deals with T1, chimeric human H3 receptor (Homo sapiens, UniProt Q9Y5N1).
T1 construct: rat Galpha-i2 (Gnai2, rat); made in house; host or cells: Sf9 insect cells (baculovirus); P2 membranes
The experiment in a line: Chimeric human H3 receptor screening GTP binding assay (inhibition of histamine-stimulated GTP-gamma35S binding, Example 8). The following applies: 1 h; assay described in Example 8; symbol "!" in column headed Ki; read-out: Ki ("!": percent inhibition of agonist-induced GTP-gammaS binding to H3). The format is biochemical. The procedure, abridged: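 Compound tested at 4 μM against 1 μM histamine stimulation; 125 pM GTP-gamma35S binding measured by filtration and scintillation after 60 min at room temperature. Membranes from Sf9 cells expressing chimeric human H3 plus G-protein subunits, in Tris pH 7.4/NaCl/MgCl2/GDP buffer; values are % inhibition after nonspecific subtraction.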

T1 sequence (Q9Y5N1 with tags, fused parts or gaps): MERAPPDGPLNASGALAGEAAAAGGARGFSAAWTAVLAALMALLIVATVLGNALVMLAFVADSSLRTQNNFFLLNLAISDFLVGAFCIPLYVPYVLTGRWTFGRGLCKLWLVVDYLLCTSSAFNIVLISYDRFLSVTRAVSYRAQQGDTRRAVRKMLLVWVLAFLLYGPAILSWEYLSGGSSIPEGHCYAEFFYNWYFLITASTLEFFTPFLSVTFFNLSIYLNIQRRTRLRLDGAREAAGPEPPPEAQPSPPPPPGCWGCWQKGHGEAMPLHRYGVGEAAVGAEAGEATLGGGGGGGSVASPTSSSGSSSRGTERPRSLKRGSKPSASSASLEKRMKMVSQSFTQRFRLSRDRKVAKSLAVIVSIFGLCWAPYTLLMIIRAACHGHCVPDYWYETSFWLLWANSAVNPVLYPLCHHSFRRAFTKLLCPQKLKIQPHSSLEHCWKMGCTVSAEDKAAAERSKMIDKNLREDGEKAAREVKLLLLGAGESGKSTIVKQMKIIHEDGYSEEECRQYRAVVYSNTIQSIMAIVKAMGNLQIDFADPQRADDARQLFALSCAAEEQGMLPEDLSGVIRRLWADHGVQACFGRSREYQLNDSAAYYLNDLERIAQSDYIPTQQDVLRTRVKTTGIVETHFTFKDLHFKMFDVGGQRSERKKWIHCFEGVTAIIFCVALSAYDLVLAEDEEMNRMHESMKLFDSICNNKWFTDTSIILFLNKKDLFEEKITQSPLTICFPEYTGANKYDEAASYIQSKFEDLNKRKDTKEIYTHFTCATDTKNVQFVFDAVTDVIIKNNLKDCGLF

In general, inhibition refers to the share of the control response that was lost under treatment. For the molecule `Cc1ccc(C(=O)N2CCc3cnc(N4CCN(C5CCC5)CC4)nc3CC2)cc1Cl` [Compound 394, 7-(3-chloro-4-methylbenzoyl)-2-(4-cyclobutylpiperazin-1-yl)-6,7,8,9-tetrahydro-5H-pyrimido[4,5-d]azepine], the inhibition at 4 µM was at least 90%.
To `Cc1cc(C(=O)N2CCc3cnc(N4CCN(C5CCC5)CC4)nc3CC2)ccc1Cl` [Compound 395, 7-(4-chloro-3-methylbenzoyl)-2-(4-cyclobutylpiperazin-1-yl)-6,7,8,9-tetrahydro-5H-pyrimido[4,5-d]azepine] belongs at least 90%; to `O=C(c1ccc(Cl)c(Cl)c1)N1CCc2cnc(N3CCN(C4CCC4)CC3)nc2CC1` [Compound 396, 2-(4-cyclobutylpiperazin-1-yl)-7-(3,4-dichlorobenzoyl)-6,7,8,9-tetrahydro-5H-pyrimido[4,5-d]azepine], at least 90%; to `O=C(c1cccc(C(F)(F)F)c1)N1CCc2cnc(N3CCN(C4CCC4)CC3)nc2CC1` [Compound 397, 2-(4-cyclobutylpiperazin-1-yl)-7-[3-(trifluoromethyl)benzoyl]-6,7,8,9-tetrahydro-5H-pyrimido[4,5-d]azepine], at least 90%.
On to `O=C(c1cc(Cl)cc(Cl)c1)N1CCc2cnc(N3CCN(C4CCC4)CC3)nc2CC1` [Compound 398, 2-(4-cyclobutylpiperazin-1-yl)-7-(3,5-dichlorobenzoyl)-6,7,8,9-tetrahydro-5H-pyrimido[4,5-d]azepine], for which the inhibition at 4 µM was at least 90%.
In the case of `O=C(c1cccc(C(F)(F)F)c1F)N1CCc2cnc(N3CCN(C4CCC4)CC3)nc2CC1` [Compound 399, 2-(4-cyclobutylpiperazin-1-yl)-7-[2-fluoro-3-(trifluoromethyl)benzoyl]-6,7,8,9-tetrahydro-5H-pyrimido[4,5-d]azepine], the inhibition at 4 µM was at least 90%.
The result for `Cc1ccc(C(=O)N2CCc3cnc(N4CCN(C5CCC5)CC4)nc3CC2)cc1Br` [Compound 400, 7-(3-bromo-4-methylbenzoyl)-2-(4-cyclobutylpiperazin-1-yl)-6,7,8,9-tetrahydro-5H-pyrimido[4,5-d]azepine] reads at least 90%.
The result for `O=C(c1ccc(F)c(Br)c1)N1CCc2cnc(N3CCN(C4CCC4)CC3)nc2CC1` [Compound 401, 7-(3-bromo-4-fluorobenzoyl)-2-(4-cyclobutylpiperazin-1-yl)-6,7,8,9-tetrahydro-5H-pyrimido[4,5-d]azepine] reads at least 90%; that for `O=C(c1cc(C(F)(F)F)cc(C(F)(F)F)c1)N1CCc2cnc(N3CCN(C4CCC4)CC3)nc2CC1` [Compound 402, 7-[3,5-bis(trifluoromethyl)benzoyl]-2-(4-cyclobutylpiperazin-1-yl)-6,7,8,9-tetrahydro-5H-pyrimido[4,5-d]azepine], at least 90%; that for `Cc1cccc(C(=O)N2CCc3cnc(N4CCN(C5CCC5)CC4)nc3CC2)c1C` [Compound 403, 2-(4-cyclobutylpiperazin-1-yl)-7-(2,3-dimethylbenzoyl)-6,7,8,9-tetrahydro-5H-pyrimido[4,5-d]azepine], at least 90%.
Regarding `O=C(c1cccc2ccccc12)N1CCc2cnc(N3CCN(C4CCC4)CC3)nc2CC1` [Compound 404, 2-(4-cyclobutylpiperazin-1-yl)-7-(1-naphthoyl)-6,7,8,9-tetrahydro-5H-pyrimido[4,5-d]azepine], the inhibition at 4 µM is at least 90%.
To `Cc1cc(C)c(C(=O)N2CCc3cnc(N4CCN(C5CCC5)CC4)nc3CC2)c(C)c1` [Compound 405, 2-(4-cyclobutylpiperazin-1-yl)-7-(mesitylcarbonyl)-6,7,8,9-tetrahydro-5H-pyrimido[4,5-d]azepine] belongs at least 90%; to `Cc1cccc(C)c1C(=O)N1CCc2cnc(N3CCN(C4CCC4)CC3)nc2CC1` [Compound 406, 2-(4-cyclobutylpiperazin-1-yl)-7-(2,6-dimethylbenzoyl)-6,7,8,9-tetrahydro-5H-pyrimido[4,5-d]azepine], at least 90%.
On to `Cc1ccc(C(=O)N2CCc3cnc(N4CCN(C5CCC5)CC4)nc3CC2)c(C)c1` [Compound 407, 2-(4-cyclobutylpiperazin-1-yl)-7-(2,4-dimethylbenzoyl)-6,7,8,9-tetrahydro-5H-pyrimido[4,5-d]azepine], for which the inhibition at 4 µM is at least 90%.
Take `CSc1ccccc1C(=O)N1CCc2cnc(N3CCN(C4CCC4)CC3)nc2CC1` [Compound 408, 2-(4-cyclobutylpiperazin-1-yl)-7-[2-(methylthio)benzoyl]-6,7,8,9-tetrahydro-5H-pyrimido[4,5-d]azepine]: the inhibition at 4 µM is at least 90%.
Turning to `O=C(c1ccccc1-c1ccccc1)N1CCc2cnc(N3CCN(C4CCC4)CC3)nc2CC1` [Compound 409, 7-(biphenyl-2-ylcarbonyl)-2-(4-cyclobutylpiperazin-1-yl)-6,7,8,9-tetrahydro-5H-pyrimido[4,5-d]azepine], the inhibition at 4 µM is at least 90%.
As for `O=C(c1ccccc1Cc1ccccc1)N1CCc2cnc(N3CCN(C4CCC4)CC3)nc2CC1` [Compound 410, 7-(2-benzylbenzoyl)-2-(4-cyclobutylpiperazin-1-yl)-6,7,8,9-tetrahydro-5H-pyrimido[4,5-d]azepine], the inhibition at 4 µM is at least 90%.
To `O=C(c1ccccc1CCc1ccccc1)N1CCc2cnc(N3CCN(C4CCC4)CC3)nc2CC1` [Compound 411, 2-(4-cyclobutylpiperazin-1-yl)-7-[2-(2-phenylethyl)benzoyl]-6,7,8,9-tetrahydro-5H-pyrimido[4,5-d]azepine] belongs at least 90%; to `O=C(c1ccccc1OC(F)(F)F)N1CCc2cnc(N3CCN(C4CCC4)CC3)nc2CC1` [Compound 412, 2-(4-cyclobutylpiperazin-1-yl)-7-[2-(trifluoromethoxy)benzoyl]-6,7,8,9-tetrahydro-5H-pyrimido[4,5-d]azepine], at least 90%; to `COc1ccc(Br)c(C(=O)N2CCc3cnc(N4CCN(C5CCC5)CC4)nc3CC2)c1` [Compound 413, 7-(2-bromo-5-methoxybenzoyl)-2-(4-cyclobutylpiperazin-1-yl)-6,7,8,9-tetrahydro-5H-pyrimido[4,5-d]azepine], at least 90%.
With `COc1ccc(Br)c(OC)c1C(=O)N1CCc2cnc(N3CCN(C4CCC4)CC3)nc2CC1` [Compound 414, 7-(3-bromo-2,6-dimethoxybenzoyl)-2-(4-cyclobutylpiperazin-1-yl)-6,7,8,9-tetrahydro-5H-pyrimido[4,5-d]azepine], the inhibition at 4 µM was at least 90%.
As to `CCOc1ccccc1C(=O)N1CCc2cnc(N3CCN(C4CCC4)CC3)nc2CC1` [Compound 415, 2-(4-cyclobutylpiperazin-1-yl)-7-(2-ethoxybenzoyl)-6,7,8,9-tetrahydro-5H-pyrimido[4,5-d]azepine], the inhibition at 4 µM is at least 90%.
For the molecule `CCCOc1ccccc1C(=O)N1CCc2cnc(N3CCN(C4CCC4)CC3)nc2CC1` [Compound 416, 2-(4-cyclobutylpiperazin-1-yl)-7-(2-propoxybenzoyl)-6,7,8,9-tetrahydro-5H-pyrimido[4,5-d]azepine], the inhibition at 4 µM was at least 90%.
In the case of `CCCCOc1ccccc1C(=O)N1CCc2cnc(N3CCN(C4CCC4)CC3)nc2CC1` [Compound 417, 7-(2-butoxybenzoyl)-2-(4-cyclobutylpiperazin-1-yl)-6,7,8,9-tetrahydro-5H-pyrimido[4,5-d]azepine], the inhibition at 4 µM is at least 90%.
